The target of data set [1] is Glycogen synthase kinase-3 beta (Homo sapiens, UniProt P49841). Kind of data set: Inhibition of human GSK-3beta.
Data set [2] is filed under the species Mus musculus. In words: Anticonvulsant activity in mouse by MES test. Format: functional.
The subject of data set [3] is PC-12. In words: Anti amyotrophic lateral sclerosis activity in rat PC-12 cells assessed as decrease in G93A SOD1 aggregate formation relative to control. The format is functional. Further details: scale not given: the % may be the effect or the level left.
Data set [4] relates to Mycobacterium tuberculosis. In words: Antibacterial activity against Mycobacterium tuberculosis. Format: functional, organism-based.
A short description of data set [5]: Selectivity index, ratio of CC50 african green monkey Vero cells to IC50 for Mycobacterium tuberculosis. Particulars: read-out: Ratio CC50/IC50. The format is toxicity.
In data set [6] the target is Cholinesterase (Equus caballus) (UniProt P81908). Kind of data set: Inhibition of equine serum BChE at 10^-3 M relative to control. Format: cell-free. Particulars: dose 1.0 10^-3M.
Chain of Cholinesterase (Equus caballus) (P81908 whole entry): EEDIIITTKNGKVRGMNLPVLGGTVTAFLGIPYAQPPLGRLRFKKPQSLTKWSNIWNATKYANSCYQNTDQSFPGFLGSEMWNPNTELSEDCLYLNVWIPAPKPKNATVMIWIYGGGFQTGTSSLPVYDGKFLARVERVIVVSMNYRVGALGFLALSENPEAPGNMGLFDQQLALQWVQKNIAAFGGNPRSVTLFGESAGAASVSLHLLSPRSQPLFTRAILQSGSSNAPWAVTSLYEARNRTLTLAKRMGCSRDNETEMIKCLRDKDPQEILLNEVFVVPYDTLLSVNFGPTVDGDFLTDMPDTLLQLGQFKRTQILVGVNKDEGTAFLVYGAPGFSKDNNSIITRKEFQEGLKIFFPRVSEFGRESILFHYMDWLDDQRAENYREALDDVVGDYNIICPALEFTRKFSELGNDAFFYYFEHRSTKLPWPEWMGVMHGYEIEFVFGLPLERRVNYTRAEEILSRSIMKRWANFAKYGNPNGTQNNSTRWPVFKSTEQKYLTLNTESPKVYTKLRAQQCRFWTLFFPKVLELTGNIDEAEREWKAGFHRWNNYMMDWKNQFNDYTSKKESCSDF
The target of another data set is Acetylcholinesterase (Electrophorus electricus, UniProt O42275). Kind of data set: Inhibition of electric eel AChE.
Chain of Acetylcholinesterase (O42275 whole entry): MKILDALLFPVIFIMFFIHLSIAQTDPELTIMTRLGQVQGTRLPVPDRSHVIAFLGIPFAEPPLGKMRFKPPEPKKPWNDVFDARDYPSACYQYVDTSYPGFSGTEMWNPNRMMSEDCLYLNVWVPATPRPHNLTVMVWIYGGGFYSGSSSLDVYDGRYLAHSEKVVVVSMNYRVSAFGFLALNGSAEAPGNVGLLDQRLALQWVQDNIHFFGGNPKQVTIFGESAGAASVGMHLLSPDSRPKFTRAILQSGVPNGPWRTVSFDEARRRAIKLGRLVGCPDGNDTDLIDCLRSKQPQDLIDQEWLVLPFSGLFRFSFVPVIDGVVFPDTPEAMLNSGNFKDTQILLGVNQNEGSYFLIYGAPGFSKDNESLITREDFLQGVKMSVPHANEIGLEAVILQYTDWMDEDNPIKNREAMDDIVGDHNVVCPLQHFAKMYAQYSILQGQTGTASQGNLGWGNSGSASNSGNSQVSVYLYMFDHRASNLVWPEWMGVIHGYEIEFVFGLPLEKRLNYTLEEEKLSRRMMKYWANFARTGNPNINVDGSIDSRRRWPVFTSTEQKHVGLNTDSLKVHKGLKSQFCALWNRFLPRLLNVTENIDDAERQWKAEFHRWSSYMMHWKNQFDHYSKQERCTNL
Data set [7] addresses T1, Amine oxidase [flavin-containing] A (Homo sapiens, UniProt P21397).
T1 sequence (P21397 whole entry): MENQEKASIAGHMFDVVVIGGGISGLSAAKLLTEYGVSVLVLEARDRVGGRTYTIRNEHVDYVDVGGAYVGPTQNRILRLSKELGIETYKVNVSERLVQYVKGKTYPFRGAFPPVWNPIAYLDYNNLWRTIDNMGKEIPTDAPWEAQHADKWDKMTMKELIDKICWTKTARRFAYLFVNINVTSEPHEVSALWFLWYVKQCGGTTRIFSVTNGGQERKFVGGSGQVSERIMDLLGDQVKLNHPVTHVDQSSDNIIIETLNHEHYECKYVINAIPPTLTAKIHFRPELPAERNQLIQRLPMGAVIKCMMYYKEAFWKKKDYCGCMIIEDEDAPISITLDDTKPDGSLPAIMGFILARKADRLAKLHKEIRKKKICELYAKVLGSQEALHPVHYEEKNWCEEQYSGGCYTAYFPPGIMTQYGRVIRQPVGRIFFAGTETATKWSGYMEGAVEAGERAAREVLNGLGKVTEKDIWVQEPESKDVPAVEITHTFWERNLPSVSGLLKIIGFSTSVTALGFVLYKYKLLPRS
Kind of data set: Inhibition of MAO-A (unknown origin) relative to control.

The next data set concerns Bacillus subtilis. In words: Antibacterial activity against Bacillus subtilis. The format is functional.
The next data set has as its system Escherichia coli. Kind of data set: Antibacterial activity against Escherichia coli. Format: functional.
In the next data set the test system is Pseudomonas aeruginosa. Kind of data set: Antibacterial activity against Pseudomonas aeruginosa. Format: functional.
Another data set deals with Geotrichum candidum. Kind of data set: Antifungal activity against Geotrichum candidum. Format: functional.
A further data set relates to Streptococcus pyogenes. In words: Antibacterial activity against Streptococcus pyogenes. The format is functional.
In data set [8] the test system is PC-12. Kind of data set: Anti amyotrophic lateral sclerosis activity in rat PC-12 cells assessed as decrease in G93A SOD1 aggregate formation. The format is functional. Particulars: read-out: ED50 (the source's name).
Data set [9] deals with PC-12. In words: Cytotoxicity against rat PC-12 cells. Format: functional. The following applies: read-out: LD50 (the source's name).
Data set [10] is described as follows: Inhibition of porcine alpha amylase. Also on record: species or system Sus scrofa.
The species named for data set [11] is Mus musculus. Kind of data set: Antihyperglycemic activity in mouse assessed as reduction in serum glucose ratio after 2 hrs. Further details: scale not given: the % may be the effect or the level left. Format: functional.
For data set [12], the species on record is Mus musculus. Kind of data set: Antihyperglycemic activity in mouse assessed as reduction in serum glucose ratio after 7 days. The format is functional. Also on record: scale not given: the % may be the effect or the level left. Particulars: time 7 day.
The next data set addresses Alpha-glucosidase (Saccharomyces cerevisiae S288c, UniProt P53341+P38158+P07265). Kind of data set: Inhibition of Saccharomyces cerevisiae alpha glucosidase. Format: protein assay.
Data set [13] concerns Mus musculus. Kind of data set: Antihyperglycemic activity in db/db mouse assessed as decrease in blood glucose level at 2 mg/kg. The format is functional. Also on record: scale not given: the % may be the effect or the level left.
Data set [14] concerns Mus musculus. In words: Antihyperglycemic activity in db/db mouse assessed as decrease in blood glucose level at 100 mg/kg. Format: functional. Further details: scale not given: the % may be the effect or the level left.
Data set [15] relates to Mus musculus. In words: Antihyperglycemic activity in db/db mouse assessed as decrease in blood glucose level at 20 mg/kg. The format is functional. Also on record: scale not given: the % may be the effect or the level left.
Data set [16] concerns the target Amine oxidase [flavin-containing] A (Rattus norvegicus, UniProt P21396). In words: Inhibition of rat brain synaptosome MAO-A. The format is subcellular.
For another data set, the species on record is Homo sapiens. Kind of data set: Selectivity index, ratio of Ki for human MAO-B to Ki for human MAO-A.
Data set [17] addresses Amine oxidase [flavin-containing] B (Rattus norvegicus, UniProt P19643). Kind of data set: Inhibition of rat brain synaptosome MAO-B. Format: subcellular.
The target of data set [18] is T1, Amine oxidase [flavin-containing] A. Kind of data set: Inhibition of human MAO-A.
The target in data set [19] is T2, Amine oxidase [flavin-containing] B (Homo sapiens, UniProt P27338).
T2 sequence (P27338 whole entry): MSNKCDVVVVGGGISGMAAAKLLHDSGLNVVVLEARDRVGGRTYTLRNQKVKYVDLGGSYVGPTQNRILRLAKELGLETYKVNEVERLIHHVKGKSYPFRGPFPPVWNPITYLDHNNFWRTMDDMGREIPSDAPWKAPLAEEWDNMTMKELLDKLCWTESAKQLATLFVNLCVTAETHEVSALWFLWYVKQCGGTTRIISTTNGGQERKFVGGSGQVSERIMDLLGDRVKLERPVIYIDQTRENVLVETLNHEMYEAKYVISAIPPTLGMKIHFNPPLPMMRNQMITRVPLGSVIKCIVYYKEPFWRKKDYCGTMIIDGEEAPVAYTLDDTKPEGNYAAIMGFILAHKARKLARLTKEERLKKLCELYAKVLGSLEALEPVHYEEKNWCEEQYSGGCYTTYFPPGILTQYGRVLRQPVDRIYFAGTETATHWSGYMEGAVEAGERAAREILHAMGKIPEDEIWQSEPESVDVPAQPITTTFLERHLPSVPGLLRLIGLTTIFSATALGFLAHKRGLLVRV
Kind of data set: Inhibition of human MAO-B.

Data set [20] relates to Mycobacterium tuberculosis. Kind of data set: Antibacterial activity against Mycobacterium tuberculosis H37Rv. Format: functional.
A short description of data set [21]: Selectivity index, ratio of IC50 mouse […] 3T3 cells to MIC for Mycobacterium tuberculosis H37Rv. Format: toxicity. The following applies: NIH 3T3 cells, read-out: Selectivity Index.
The target of data set [22] is T2, Amine oxidase [flavin-containing] B. Kind of data set: Inhibition of MAO-B (unknown origin).
For data set [23], the target named is Aldo-keto reductase family 1 member B1 (Homo sapiens, UniProt P15121). In words: Inhibition of aldose reductase (unknown origin).
The species named for a further data set is Rattus norvegicus. Kind of data set: Anticonvulsant activity in tryptamine seizure potentiated Wistar rat. The format is functional.
For a further data set, the target named is Liver carboxylesterase 1 (Homo sapiens, UniProt P23141). Kind of data set: Inhibition of human CE1.
Chain of Liver carboxylesterase 1 (P23141 whole entry): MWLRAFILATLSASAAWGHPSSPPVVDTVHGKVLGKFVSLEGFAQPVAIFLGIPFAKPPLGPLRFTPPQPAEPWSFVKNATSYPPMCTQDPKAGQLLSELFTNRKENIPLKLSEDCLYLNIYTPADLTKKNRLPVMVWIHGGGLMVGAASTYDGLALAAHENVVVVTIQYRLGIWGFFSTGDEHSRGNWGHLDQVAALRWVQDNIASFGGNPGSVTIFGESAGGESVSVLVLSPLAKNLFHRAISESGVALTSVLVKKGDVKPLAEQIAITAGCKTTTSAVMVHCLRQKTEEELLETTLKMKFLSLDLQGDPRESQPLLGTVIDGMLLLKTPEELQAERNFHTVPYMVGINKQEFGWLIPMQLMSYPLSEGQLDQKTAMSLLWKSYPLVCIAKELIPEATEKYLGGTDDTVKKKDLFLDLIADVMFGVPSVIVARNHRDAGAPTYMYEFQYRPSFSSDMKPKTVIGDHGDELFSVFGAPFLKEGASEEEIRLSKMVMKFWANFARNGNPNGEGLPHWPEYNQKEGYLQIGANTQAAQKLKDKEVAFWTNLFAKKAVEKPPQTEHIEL

One may read the IC50 as the concentration that inhibits the measured activity by half. The term inhibition denotes the drop in the measured response relative to a control, in per cent. For orientation: MIC means the least concentration at which growth counts as inhibited. As a reminder, the Ki is a dissociation constant, usually derived from enzyme kinetics or from competition with a known ligand.

Converted amounts (≈) assume the structure as drawn.

Chain of Amine oxidase [flavin-containing] A (Rattus norvegicus, UniProt P21396) (P21396 whole entry): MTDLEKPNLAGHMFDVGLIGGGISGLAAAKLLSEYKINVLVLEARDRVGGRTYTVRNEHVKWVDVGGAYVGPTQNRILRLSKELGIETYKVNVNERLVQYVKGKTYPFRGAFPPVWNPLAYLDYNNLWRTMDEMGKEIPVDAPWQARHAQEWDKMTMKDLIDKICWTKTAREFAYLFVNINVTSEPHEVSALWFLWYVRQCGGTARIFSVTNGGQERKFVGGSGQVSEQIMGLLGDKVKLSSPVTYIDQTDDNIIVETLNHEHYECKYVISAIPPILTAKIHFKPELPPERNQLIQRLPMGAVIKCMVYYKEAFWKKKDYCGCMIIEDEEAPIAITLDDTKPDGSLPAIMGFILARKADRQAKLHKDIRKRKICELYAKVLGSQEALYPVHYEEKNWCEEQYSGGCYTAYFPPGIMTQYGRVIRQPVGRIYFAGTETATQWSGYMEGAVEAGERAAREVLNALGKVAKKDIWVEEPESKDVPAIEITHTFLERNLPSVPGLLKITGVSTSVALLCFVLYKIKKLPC
Chain of Amine oxidase [flavin-containing] B (Rattus norvegicus, UniProt P19643) (P19643 whole entry): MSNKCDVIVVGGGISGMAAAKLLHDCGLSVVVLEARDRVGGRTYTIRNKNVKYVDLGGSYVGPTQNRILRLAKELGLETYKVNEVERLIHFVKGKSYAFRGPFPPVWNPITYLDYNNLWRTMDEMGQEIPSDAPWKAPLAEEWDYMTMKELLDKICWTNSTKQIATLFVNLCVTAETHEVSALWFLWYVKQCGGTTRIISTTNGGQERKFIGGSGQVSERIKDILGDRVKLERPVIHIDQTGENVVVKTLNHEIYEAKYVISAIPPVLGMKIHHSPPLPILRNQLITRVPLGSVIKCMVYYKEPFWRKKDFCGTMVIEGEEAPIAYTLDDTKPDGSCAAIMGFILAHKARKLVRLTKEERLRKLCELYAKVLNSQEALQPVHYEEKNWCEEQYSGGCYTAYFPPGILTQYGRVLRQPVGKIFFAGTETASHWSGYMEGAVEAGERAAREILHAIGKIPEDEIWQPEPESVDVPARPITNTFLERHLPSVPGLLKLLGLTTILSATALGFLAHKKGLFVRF
Chain of Glycogen synthase kinase-3 beta (P49841 whole entry): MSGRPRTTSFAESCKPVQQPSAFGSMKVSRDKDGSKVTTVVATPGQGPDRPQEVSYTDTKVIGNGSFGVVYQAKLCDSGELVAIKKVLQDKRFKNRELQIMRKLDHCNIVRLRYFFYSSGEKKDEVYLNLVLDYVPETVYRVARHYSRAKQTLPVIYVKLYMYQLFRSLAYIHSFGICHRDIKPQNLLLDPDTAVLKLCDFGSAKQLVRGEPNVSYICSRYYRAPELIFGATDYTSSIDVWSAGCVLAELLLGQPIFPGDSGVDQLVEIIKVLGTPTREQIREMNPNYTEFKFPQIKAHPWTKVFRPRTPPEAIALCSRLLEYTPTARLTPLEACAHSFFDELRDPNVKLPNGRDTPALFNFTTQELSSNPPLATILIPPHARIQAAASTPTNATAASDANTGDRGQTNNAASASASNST

In [1], `Cn1cc(-c2[nH][nH]c(=O)c2-c2cn(C)c3ccccc23)c2ccccc21` displayed an IC50 of 34 nM.
Turning to `CC1=NN(c2ccccc2)C(=O)/C1=C\c1cn(-c2ccccc2)nc1-c1ccc(Cl)c(Cl)c1`, the Activity in the data set filed under Mus musculus [2] is 79.76%.
On to `C[C@@H]1C[C@H]2O[C@@H]2/C=C\C=C\C(=O)Cc2c(Cl)c(O)cc(O)c2C(=O)O1` [RADICICOL], for which the Activity in the data set with PC-12 [3] is 80%.
On to `O=C1CC(NC(=O)CN2CCNCC2)=NN1`, for which the IC50 in data set [4] is below 440 nM. Besides, the selectivity ratio in data set [5] is 631.
The matching figures for `O=C1CC(NC(=O)CNc2ccc(Cl)cc2)=NN1`: below 370 nM and 633.
In the case of `Cc1cccc(C)c1/C=N/c1c(C)n(C)n(-c2ccccc2)c1=O`, the inhibition in data set [6] was found to be 96.3%. Further, the IC50 against Acetylcholinesterase was 57 nM. In addition, the “inhibition (INH)” value in data set [7] is recorded as 42.3%.
On to `CC(=O)N1N=C(C)/C(=N/Nc2cc(Cl)cc(Cl)c2)C1=O`, for which the MIC against Bacillus subtilis was at most 12.5 µg/mL; in the data set with Escherichia coli it was above 200 µg/mL; in the data set on Pseudomonas aeruginosa, at most 12.5 µg/mL; with Geotrichum candidum, above 200 µg/mL; against Streptococcus pyogenes it was at most 12.5 µg/mL.
For `Cc1cc(SCc2cc(=O)[nH][nH]2)c(Cl)cc1Cl`, the EC50 in the data set with PC-12 [8] is 400 nM. Besides, in the data set with PC-12 [9], the CC50 was above 100000 nM.
Consider `Cc1c(C(=O)CS(=O)(=O)c2ccccc2)c(=O)n(-c2ccccc2)n1C`, for which the IC50 in data set [10] is 14700 nM; at Alpha-glucosidase it was 63660 nM. Also, the results for the Activity in the data set listed under Mus musculus [11] and in the data set filed under Mus musculus [12] were 32.16% and 13.34%, respectively.
As for `CSc1ccc(Cc2c(C(F)(F)F)n[nH]c2O)cc1`, the Activity in the data set on Mus musculus [13] is listed as 30%; with Mus musculus [14], 68%; in the data set with Mus musculus [15] it was 57%.
For the compound `Cc1c(C(=O)CC(C#N)C#N)c(=O)n(-c2ccccc2)n1C`, the IC50 in data set [16] was found to be 2340 nM; in data set [17] it was 132 nM. Moreover, the Ratio Ki in the data set filed under Homo sapiens came to 8670. Moreover, the Ki in [18] was found to be 0.014 nM; in data set [19] it was 121 nM.
In data set [20], `CC1=NN(NCC(=O)c2ccccc2)C(=O)/C1=N/Nn1c(-c2ccccc2)nc2ccccc2c1=O` showed a minimum inhibitory concentration (MIC) of 3.11 µg/mL (≈ 6.49 µM). Besides, in data set [21], the selectivity ratio worked out at 26.4.
As for `Cc1c(/N=C/c2ccc(OCCCN(C)C)cc2)c(=O)n(-c2ccccc2)n1C`, the inhibition in data set [6] was 35.3%. For the same compound, the IC50 in data set [22] turned out to be 49 nM. In data set [7], the “inhibition (INH)” value was 38.1%.
For the compound `NC(=S)N1N=C(N)/C(=C\c2cc(-c3ccc(Cl)cc3)nn2-c2ccccc2)C1=O`, 6300 nM corresponded to half-maximal inhibition in [23] (IC50).
For `C#CCN(C)[C@H](C)Cc1ccccc1` [SELEGILINE], the ED50 in the data set filed under Rattus norvegicus was found to be 300 nM.
`Cc1c(-c2cc(C#N)c(N)o2)c(=O)n(-c2ccccc2)n1C`: the IC50 was 7.99 nM in [16] and 45.4 nM in data set [17]. Moreover, the Ratio Ki in the data set listed under Homo sapiens is 2210. Moreover, the Ki was 0.346 nM in data set [18] and 766 nM in data set [19].
The compound `Cc1ccc(C2=NN(c3ccccc3)C(=O)C23N=C([S@@+](C)[O-])N(C(=O)OC(C)(C)C)[C@]32C(=O)N(Cc3ccccc3)c3ccccc32)cc1` (some centres not stated) returned an IC50 against Liver carboxylesterase 1 of 390 nM.

(Values after ChEMBL document CHEMBL5233210, “Pyrazolone structural motif in medicinal chemistry: Retrospect and prospect” (Eur J Med Chem, 2020).)
